# Source: patent publication US6814988B2, “Process for optimizing milk production” (Novus International, Inc., priority 1997, dated 2004)
# Where two headings read alike, the source gives them in different places.
# Tests used:
# [1] = Lactation study, Alimet in close-up dry period and early lactation diets (Example 2); type: in vivo, cows
# Procedure: The diets (Table IV) were formulated to include Alimet® to meet the methionine requirements as determined using existing computer modeling technology (CNCPS and DAIRYLP). The diets were balanced to meet amino acid requirements and included standard feed ingredients used in dairy rations. In the absence of added Alimet®, the control diet was predicted to be first limiting in methionine. The estimated need for methionine was approximately 9 grams per day. Alimet® was added assuming an availability to the ruminant of 20%.
# This study included 10 multiparous and five primiparous cows per treatment, supplemented with Alimet® for two weeks before calving and for 12 weeks of lactation. […] At peak milk yield, Alimet-fed multiparous cows produced 7.9 kg/d more FCM than unsupplemented cows (42.0 vs 34.1 kg/d). The benefits of supplying post ruminal amino acid would appear to be greatest during the close-up dry period and early lactation.
# [2] = female, cow, in vivo
# Procedure: (§1) The absorption and metabolism of 2-hydroxy-4-[methylthio]butanoic acid sold by Novus International (St. Louis, Mo. under the Alimet® was measured in four lactating dairy cows fitted with rumen and duodenal T-type cannulae (10 cm distal to the pylorus). The cows were offered a basal diet of barley-based concentrate (Table I) and alfalfa hay. The concentrate was fed at a level of 1 kg for every 2.5 kg of milk produced (Table I) and access to alfalfa hay was ad libitum. In addition, cows received 30 g HMB mixed with 2 kg ground corn grain per day for six days to allow for adaptation of the rumen microflora. Cows were then fed 90 g HMB mixed with the ground corn and were administered 600 ml chromium-EDTA (3 g Cr) (Binnerts et al., “Soluble chromium indicator measured by atomic absorption in digestion experiments” Vet. Rec. (1968) page 470) into the rumen via the rumen cannula. The HMB meal was offered to the cows for 20 minutes prior to the morning feeding and any of the remaining meal was placed in the rumen via the rumen cannula.
# (§2) Blood, rumen and duodenal samples were collected at 0, 1, 3, 6, 9, 12 and 24 hours post-HMB-feeding. Blood was collected by jugular veni-puncture into 2×10 ml sterile tubes (Vacutainer Brand SST tubes for serum separation, Bectin Dickenson, Rutherford, N.J.), allowed to stand for 30 minutes in an ice bath and centrifuged at 3000×g to separate the serum from cells. Serum was divided into two fractions. The first fraction was deproteinized by adding an equal volume of acetonitrile and then centrifuging to obtain the supernatant. The deproteinized serum was then frozen (−70° C.) until analysis. A second fraction was not deproteinized but directly frozen (−70° C.). Rumen fluid (100 ml) collected from several sites within the rumen was strained through four layers of cheesecloth and subsampled. The subsample (30 ml) was acidified with 6 M HCl (0.5 ml) and frozen (−40° C.). Duodenal samples collected (100 ml) were also stored frozen (−40° C.). Rumen and duodenal samples were later thawed and centrifuged at 23 000×g, 4° C., for 20 minutes to obtain the clarified supernatant. The clarified rumen and the duodenal samples were then frozen until analysis. Serum was analyzed for methionine and rumen and duodenal samples for HMB. Chromium was measured by atomic absorption spectrophotometry in rumen and duodenal samples that were diluted with an equal volume of a calcium chloride solution to yield samples with approximately 400 ppm Ca^2+ (Williams et al., “The determination of chromic oxide in faeces samples by atomic absorption spectrophotometry” J. Agric. Sci., Vol. 59 (1962) pp. 381-385).
# (§3) The slope of the line from the semilogarithmic plot is equal to the fractional rate constant (K). The rate constants were calculated by linear regression of the natural logarithm of Cr and HMB concentration verses time (Table III). Regression analysis of rumen Cr concentration was performed with data for 1 to 24 hours (excluding data for 0 hour).
# (§4) Regression analysis for duodenal Cr and HMB concentration included the data for 3 to 24 hours and 3 to 12 hours, respectively. Excluding the data for 1 hour simplified the analysis by omitting the delay for the translocation of digesta from the rumen to the duodenum.
# [3] = Amount of methionine hydroxy analog bypassing the rumen and available for absorption, summary of experimental evidence; type: in vivo, ruminant
# Text: Everything considered, therefore, the amount of the hydroxy analog of methionine which bypasses the rumen and is available for absorption is between about 40% and about 55%.
# in vivo = conditions: female, cow
# Procedure: as §1, §2, §3, §4
# [4] = Rumen bypass and gastrointestinal availability of HMB in rumen- and duodenum-cannulated lactating dairy cows (Example 1); conditions: for Chromium Concentration: 3 g Cr into rumen
# Procedure: as §1, §2, §3, §4
# [5] = duodenal fluid, 3 to 24 hours, cow 124
# [6] = duodenal fluid, 3 to 24 hours, cow 131
# [7] = duodenal fluid, 3 to 24 hours, cow 133
# [8] = duodenal fluid, 3 to 24 hours, cow 138
# [9] = duodenal fluid, 3 to 24 hours, mean of four cows
# [10] = rumen fluid, 1 to 24 hours, cow 24
# [11] = rumen fluid, 1 to 24 hours, cow 131
# [12] = rumen fluid, 1 to 24 hours, cow 133
# [13] = rumen fluid, 1 to 24 hours, cow 138
# [14] = rumen fluid, 1 to 24 hours, mean of four cows
molecule,measurement,setting,value
"CSCCC(O)C(=O)O (stereo not drawn) [HMB, DL, 2-hydroxy-4-[methylthio]butanoic acid]",more FCM than unsupplemented cows,[1]; multiparous cows at peak milk yield,7.9 kg/day
same,FCM production,"[1]; multiparous cows at peak milk yield, unsupplemented 34.1",42.0 kg/day
same,"milk protein content, higher than unsupplemented cows",[1]; supplemented two weeks before calving and 12 weeks of lactation,not
same,milk fat content,"[1]; supplemented two weeks before calving and 12 weeks of lactation, unsupplemented 3.71%",4.01%
same,fat-corrected content (FCM) production,"[1]; supplemented two weeks before calving and 12 weeks of lactation, unsupplemented 29.2",33.4 kg/day
same,milk production,"[1]; supplemented two weeks before calving and 12 weeks of lactation, unsupplemented 31.3",33.9 kg/day
same,percent of the HMB dose absorbed in the omasum,[2],8.8%
same,percent of the HMB dose bypassing the rumen fermentation,[2],40%
same,percent of the HMB dose that disappeared (was degraded) in the rumen,[2],60%
same,percent of the HMB that passed to the small intestine,[2],31.2%
same,rate constant for microbial degradation of HMB within the rumen,[2],−0.1962
same,time by which rumen and duodenal HMB and serum methionine had returned to pre-dose levels,[2],≤ 12 h
same,time of peak duodenal HMB concentration,[2],3 h
same,time of peak ruminal HMB concentration,[2],1 h
same,time of peak serum methionine concentration,[2],6 h
same,HMB Concentration,[2]; 0 h,<10 µg/mL
same,increase in serum methionine above pre-dose levels at the peak concentration,[2]; 6 h,200%
same,HMB Concentration,[2]; 24 h,<10 µg/mL
same,amount absorbed by the omasum,[3]; additional experimental evidence,about 8.8%
same,amount which by-passes the rumen,"[3]; experimental bypass data and field work with dairy cattle (milk response), molecular basis",at least 40%
same,amount which bypasses the rumen and is available for absorption,"[3]; fed in the absence of a bypass fat, molecular basis, experimental evidence to date",at least 20%
same,bioavailability,in vivo,40%
same,concentration at 0 h,in vivo; HMB Concentration,< 10000 ng/mL
same,concentration at 24 h,in vivo; HMB Concentration,< 10000 ng/mL
same,concentration at 24 h,in vivo; rumen concentration of HMB,< 10000 ng/mL
chromium-EDTA,Chromium Concentration,"[4]; duodenal fluid, 0 h, cow 124",1.36 µg/mL
same,Chromium Concentration,"[4]; duodenal fluid, 0 h, cow 131",0.05 µg/mL
same,Chromium Concentration,"[4]; duodenal fluid, 0 h, cow 133",0.05 µg/mL
same,Chromium Concentration,"[4]; duodenal fluid, 0 h, cow 138",0.02 µg/mL
same,"Constant, linear regression of natural logarithm of Cr concentration versus time",[4]; [5],3.0038
same,"K (fractional rate constant), Chromium",[4]; [5],−.0705
same,"Constant, linear regression of natural logarithm of Cr concentration versus time",[4]; [6],3.5284
same,"K (fractional rate constant), Chromium",[4]; [6],−.1201
same,"Constant, linear regression of natural logarithm of Cr concentration versus time",[4]; [7],3.6342
same,"K (fractional rate constant), Chromium",[4]; [7],−.1173
same,"Constant, linear regression of natural logarithm of Cr concentration versus time",[4]; [8],3.7419
same,"K (fractional rate constant), Chromium",[4]; [8],−.1135
same,"Constant, linear regression of natural logarithm of Cr concentration versus time",[4]; [9],3.4771
same,"K (fractional rate constant), Chromium; rate constant for passage of the Cr marker to the duodenum",[4]; [9],−.1053
same,"K (fractional rate constant), Chromium; rate constant for passage of the Cr marker to the duodenum","[4]; duodenal fluid, 3 to 24 hours, mean of four cows, listed as Cr",−0.1053
same,Chromium Concentration,"[4]; duodenal fluid, 1 h, cow 124",11.69 µg/mL
same,Chromium Concentration,"[4]; duodenal fluid, 1 h, cow 131",23.80 µg/mL
same,Chromium Concentration,"[4]; duodenal fluid, 1 h, cow 133",12.14 µg/mL
same,Chromium Concentration,"[4]; duodenal fluid, 1 h, cow 138",17.98 µg/mL
same,Chromium Concentration,"[4]; duodenal fluid, 3 h, cow 124",18.30 µg/mL
same,Chromium Concentration,"[4]; duodenal fluid, 3 h, cow 131",24.55 µg/mL
same,Chromium Concentration,"[4]; duodenal fluid, 3 h, cow 133",25.41 µg/mL
same,Chromium Concentration,"[4]; duodenal fluid, 3 h, cow 138",27.23 µg/mL
same,Chromium Concentration,"[4]; duodenal fluid, 6 h, cow 124",11.99 µg/mL
same,Chromium Concentration,"[4]; duodenal fluid, 6 h, cow 131",17.86 µg/mL
same,Chromium Concentration,"[4]; duodenal fluid, 6 h, cow 133",18.42 µg/mL
same,Chromium Concentration,"[4]; duodenal fluid, 6 h, cow 138",23.24 µg/mL
same,Chromium Concentration,"[4]; duodenal fluid, 9 h, cow 124",11.00 µg/mL
same,Chromium Concentration,"[4]; duodenal fluid, 9 h, cow 131",12.16 µg/mL
same,Chromium Concentration,"[4]; duodenal fluid, 9 h, cow 133",16.36 µg/mL
same,Chromium Concentration,"[4]; duodenal fluid, 9 h, cow 138",19.26 µg/mL
same,Chromium Concentration,"[4]; duodenal fluid, 12 h, cow 124",7.89 µg/mL
same,Chromium Concentration,"[4]; duodenal fluid, 12 h, cow 131",6.39 µg/mL
same,Chromium Concentration,"[4]; duodenal fluid, 12 h, cow 133",7.89 µg/mL
same,Chromium Concentration,"[4]; duodenal fluid, 12 h, cow 138",8.39 µg/mL
same,Chromium Concentration,"[4]; duodenal fluid, 24 h, cow 124",3.88 µg/mL
same,Chromium Concentration,"[4]; duodenal fluid, 24 h, cow 131",2.06 µg/mL
same,Chromium Concentration,"[4]; duodenal fluid, 24 h, cow 133",2.29 µg/mL
same,Chromium Concentration,"[4]; duodenal fluid, 24 h, cow 138",2.85 µg/mL
same,Chromium Concentration,"[4]; rumen fluid, 0 h, cow 124",0.04 µg/mL
same,Chromium Concentration,"[4]; rumen fluid, 0 h, cow 131",0.07 µg/mL
same,Chromium Concentration,"[4]; rumen fluid, 0 h, cow 133",0.01 µg/mL
same,Chromium Concentration,"[4]; rumen fluid, 0 h, cow 138",0.02 µg/mL
same,"Constant, linear regression of natural logarithm of Cr concentration versus time",[4]; [10],3.4702
same,"K (fractional rate constant), Chromium",[4]; [10],−.0940
same,"Constant, linear regression of natural logarithm of Cr concentration versus time",[4]; [11],2.7330
same,"K (fractional rate constant), Chromium",[4]; [11],−.1576
same,"Constant, linear regression of natural logarithm of Cr concentration versus time",[4]; [12],3.7310
same,"K (fractional rate constant), Chromium",[4]; [12],−.1302
same,"Constant, linear regression of natural logarithm of Cr concentration versus time",[4]; [13],3.9905
same,"K (fractional rate constant), Chromium",[4]; [13],−.1411
same,"Constant, linear regression of natural logarithm of Cr concentration versus time",[4]; [14],3.7312
same,"K (fractional rate constant), Chromium; rate of passage of the liquid marker from the rumen",[4]; [14],−.1307
same,"K (fractional rate constant), Chromium; rate of passage of the liquid marker from the rumen","[4]; rumen fluid, 1 to 24 hours, mean of four cows, listed as Cr",−0.1307
same,Chromium Concentration,"[4]; rumen fluid, 1 h, cow 124",31.83 µg/mL
same,Chromium Concentration,"[4]; rumen fluid, 1 h, cow 131",36.27 µg/mL
same,Chromium Concentration,"[4]; rumen fluid, 1 h, cow 133",40.44 µg/mL
same,Chromium Concentration,"[4]; rumen fluid, 1 h, cow 138",45.51 µg/mL
same,Chromium Concentration,"[4]; rumen fluid, 3 h, cow 124",23.77 µg/mL
same,Chromium Concentration,"[4]; rumen fluid, 3 h, cow 131",29.11 µg/mL
same,Chromium Concentration,"[4]; rumen fluid, 3 h, cow 133",34.52 µg/mL
same,Chromium Concentration,"[4]; rumen fluid, 3 h, cow 138",37.05 µg/mL
same,Chromium Concentration,"[4]; rumen fluid, 6 h, cow 124",19.29 µg/mL
same,Chromium Concentration,"[4]; rumen fluid, 6 h, cow 131",18.09 µg/mL
same,Chromium Concentration,"[4]; rumen fluid, 6 h, cow 133",16.62 µg/mL
same,Chromium Concentration,"[4]; rumen fluid, 6 h, cow 138",27.94 µg/mL
same,Chromium Concentration,"[4]; rumen fluid, 9 h, cow 124",12.93 µg/mL
same,Chromium Concentration,"[4]; rumen fluid, 9 h, cow 131",8.89 µg/mL
same,Chromium Concentration,"[4]; rumen fluid, 9 h, cow 133",10.79 µg/mL
same,Chromium Concentration,"[4]; rumen fluid, 9 h, cow 138",13.89 µg/mL
same,Chromium Concentration,"[4]; rumen fluid, 12 h, cow 124",9.16 µg/mL
same,Chromium Concentration,"[4]; rumen fluid, 12 h, cow 131",5.04 µg/mL
same,Chromium Concentration,"[4]; rumen fluid, 12 h, cow 133",7.86 µg/mL
same,Chromium Concentration,"[4]; rumen fluid, 12 h, cow 138",8.28 µg/mL
same,Chromium Concentration,"[4]; rumen fluid, 24 h, cow 124",3.62 µg/mL
same,Chromium Concentration,"[4]; rumen fluid, 24 h, cow 131",1.07 µg/mL
same,Chromium Concentration,"[4]; rumen fluid, 24 h, cow 133",2.08 µg/mL
same,Chromium Concentration,"[4]; rumen fluid, 24 h, cow 138",1.97 µg/mL
